# System: U-937
# Assay: Inhibition of etoposide-induced caspase 3 induction in human U937 cells after 7 hrs
# Assay type: functional, cell-based
# Conditions: U-937, 7 h
row,Compound,IC50 [µg/mL]
1,COc1cc(C[C@@H]2CO[C@@H](c3ccc(O)c(OC)c3)[C@@H]2COC(=O)c2ccc(O)cc2)ccc1O [AGASTINOL],15.2
2,COc1cc(/C=C2/CO[C@@H](c3ccc(O)c(OC)c3)[C@@H]2COC(=O)c2ccc(O)cc2)ccc1O [AGASTENOL],11.4
